# Experimental data as given in patent US20050095240A1, “NaCT as a target for lifespan expansion and weight reduction” (Medical College of Georgia Research, priority 2002, published 2005).
# Read-outs that look alike come from different tables or passages of the source.
# Legend:
# ceNaCT = target: T1, ceNaCT (Caenorhabditis elegans, UniProt P32739, I91S/L182M); assay: Uptake via ceNaCT expressed in HRPE cells
# T1 sequence (P32739 1-551 I91S/L182M): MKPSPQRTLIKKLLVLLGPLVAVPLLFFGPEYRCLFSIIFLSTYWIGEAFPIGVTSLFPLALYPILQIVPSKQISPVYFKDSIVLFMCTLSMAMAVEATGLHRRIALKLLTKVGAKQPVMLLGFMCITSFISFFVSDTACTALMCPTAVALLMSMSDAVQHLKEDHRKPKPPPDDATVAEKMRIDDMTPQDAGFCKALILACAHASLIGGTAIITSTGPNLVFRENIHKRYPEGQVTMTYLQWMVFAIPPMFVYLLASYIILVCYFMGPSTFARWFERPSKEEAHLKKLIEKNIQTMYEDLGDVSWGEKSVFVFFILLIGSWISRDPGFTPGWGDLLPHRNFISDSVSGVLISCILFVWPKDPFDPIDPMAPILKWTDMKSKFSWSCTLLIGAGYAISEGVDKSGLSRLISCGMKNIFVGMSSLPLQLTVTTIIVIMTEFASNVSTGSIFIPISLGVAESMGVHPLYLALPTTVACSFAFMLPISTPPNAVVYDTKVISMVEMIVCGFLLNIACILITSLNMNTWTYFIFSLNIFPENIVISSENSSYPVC
# drIndy = drIndy (Drosophila melanogaster, UniProt Q9VVT2)
# drIndy, sequence (Q9VVT2 19-590): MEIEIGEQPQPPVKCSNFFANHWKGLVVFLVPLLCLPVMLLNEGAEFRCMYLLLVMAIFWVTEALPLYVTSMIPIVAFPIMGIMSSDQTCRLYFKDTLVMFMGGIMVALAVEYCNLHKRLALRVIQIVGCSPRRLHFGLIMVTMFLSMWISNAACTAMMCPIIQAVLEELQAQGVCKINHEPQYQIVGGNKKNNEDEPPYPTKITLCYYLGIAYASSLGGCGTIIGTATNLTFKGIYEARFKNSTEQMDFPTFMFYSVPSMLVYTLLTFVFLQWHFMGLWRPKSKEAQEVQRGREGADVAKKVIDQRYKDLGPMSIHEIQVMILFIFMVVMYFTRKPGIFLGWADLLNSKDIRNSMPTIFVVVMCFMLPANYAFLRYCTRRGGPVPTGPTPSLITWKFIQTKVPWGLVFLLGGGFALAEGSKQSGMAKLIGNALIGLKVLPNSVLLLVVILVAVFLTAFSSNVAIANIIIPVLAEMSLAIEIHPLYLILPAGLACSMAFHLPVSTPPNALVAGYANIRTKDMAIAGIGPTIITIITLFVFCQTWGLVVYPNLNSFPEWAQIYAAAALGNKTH
# human NaCT = human NaCT (Homo sapiens, UniProt Q86YT5); assay: Uptake via human NaCT expressed in HRPE cells; type: cell-based; conditions: for Citrate Uptake, cDNA / Citrate Uptake, cDNA-specific: pH 7.5
# human NaCT, sequence (Q86YT5 whole entry): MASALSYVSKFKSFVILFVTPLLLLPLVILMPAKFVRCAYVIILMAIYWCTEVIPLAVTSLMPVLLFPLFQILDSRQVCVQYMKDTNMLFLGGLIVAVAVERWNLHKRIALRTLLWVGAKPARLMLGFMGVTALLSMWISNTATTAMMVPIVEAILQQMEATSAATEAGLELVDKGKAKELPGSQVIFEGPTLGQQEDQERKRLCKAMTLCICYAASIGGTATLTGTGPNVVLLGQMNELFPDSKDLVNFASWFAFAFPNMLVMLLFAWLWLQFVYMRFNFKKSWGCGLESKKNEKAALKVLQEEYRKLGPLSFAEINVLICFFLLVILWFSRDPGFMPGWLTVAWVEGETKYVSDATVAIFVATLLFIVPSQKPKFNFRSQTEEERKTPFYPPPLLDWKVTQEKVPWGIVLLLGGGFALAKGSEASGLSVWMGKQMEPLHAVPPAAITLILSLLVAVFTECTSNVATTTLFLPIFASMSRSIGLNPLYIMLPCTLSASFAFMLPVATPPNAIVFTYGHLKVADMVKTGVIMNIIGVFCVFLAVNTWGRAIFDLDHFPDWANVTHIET
# rat NaCT = target: T2, rat NaCT (Rattus norvegicus, UniProt Q8CJ44); assay: Uptake via rat NaCT expressed in HRPE cells; type: cell-based; conditions: for Citrate Uptake, cDNA / Citrate Uptake, cDNA-specific: pH 7.5
# T2 sequence (Q8CJ44 1-572): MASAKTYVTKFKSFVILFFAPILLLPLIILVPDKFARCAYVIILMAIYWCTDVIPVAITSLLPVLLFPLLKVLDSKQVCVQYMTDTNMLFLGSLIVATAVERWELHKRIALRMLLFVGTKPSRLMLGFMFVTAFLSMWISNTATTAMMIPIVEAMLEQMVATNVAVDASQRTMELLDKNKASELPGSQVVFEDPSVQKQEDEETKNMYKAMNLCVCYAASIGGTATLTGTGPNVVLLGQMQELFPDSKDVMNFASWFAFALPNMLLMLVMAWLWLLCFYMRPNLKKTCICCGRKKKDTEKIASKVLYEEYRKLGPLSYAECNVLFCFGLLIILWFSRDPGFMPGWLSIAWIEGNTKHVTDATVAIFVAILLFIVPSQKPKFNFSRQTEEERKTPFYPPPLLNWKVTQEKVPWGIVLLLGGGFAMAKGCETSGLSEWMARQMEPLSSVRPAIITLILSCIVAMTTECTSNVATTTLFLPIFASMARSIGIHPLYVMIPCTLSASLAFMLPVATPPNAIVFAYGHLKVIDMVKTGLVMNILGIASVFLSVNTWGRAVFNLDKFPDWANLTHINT
# mouse NaCT = target: T3, mouse NaCT (Mus musculus, UniProt Q67BT3); assay: Transport via mouse NaCT expressed in HRPE cells; type: cell-based
# T3 sequence (Q67BT3 1-572): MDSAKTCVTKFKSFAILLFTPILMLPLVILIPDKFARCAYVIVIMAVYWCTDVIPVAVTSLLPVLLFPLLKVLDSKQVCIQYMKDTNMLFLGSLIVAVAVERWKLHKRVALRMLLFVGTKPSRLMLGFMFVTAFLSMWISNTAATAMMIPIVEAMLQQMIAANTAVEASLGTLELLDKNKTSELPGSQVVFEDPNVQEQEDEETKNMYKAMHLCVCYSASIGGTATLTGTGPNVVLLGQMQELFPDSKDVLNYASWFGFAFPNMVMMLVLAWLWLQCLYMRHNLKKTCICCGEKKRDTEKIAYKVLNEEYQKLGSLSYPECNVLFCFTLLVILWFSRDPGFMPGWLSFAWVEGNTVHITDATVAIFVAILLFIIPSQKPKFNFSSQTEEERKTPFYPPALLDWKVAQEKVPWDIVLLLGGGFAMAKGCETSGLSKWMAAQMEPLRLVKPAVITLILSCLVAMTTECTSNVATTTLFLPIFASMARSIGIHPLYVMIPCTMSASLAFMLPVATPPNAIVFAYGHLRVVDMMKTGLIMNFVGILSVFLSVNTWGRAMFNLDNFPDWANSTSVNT
# [1] = [3H]succinate 40 nM, inhibitor 2.5 mM
# [2] = [3H]succinate 40 nM, inhibitor 2.5 mM, NaCl buffer pH 7.5
# [3] = citrate 35 μM, drIndy cDNA-transfected HRPE cells, indicated salt
# [4] = [14C]citrate 7 μM, indicated salt
# [5] = [14C]citrate 7 μM, rat NaCT cDNA-transfected HRPE, indicated salt
# [6] = relative to NaCl, [14C]citrate 7 μM
compound,measurement,setting,value
O=C(O)CCC(=O)C(=O)O [2-Oxoglutarate],Competition with [^14C]citrate for ceNaCT-mediated uptake,ceNaCT,inhibited markedly
same,% Control of cDNA-specific [^3H]succinate uptake,drIndy,5%
same,cDNA-specific [^3H] succinate uptake,drIndy; pH 7.5,3.0 ± 1.0 fmol/106 cells per min
COC(=O)CCC(=O)OC [Dimethylsuccinate],% Control of cDNA-specific [^3H]succinate uptake,drIndy; [1],13%
same,cDNA-specific [^3H] succinate uptake,drIndy; [2],14.1 ± 0.8 fmol/106 cells per min
O=C(O)/C=C/C(=O)O [Fumarate],Competition with [^14C]citrate for ceNaCT-mediated uptake,ceNaCT,inhibited markedly
same,[^14C]-Citrate Uptake (cDNA-specific),human NaCT,43.7 ± 5.0 pmol/10^6 cells/min
same,"[^14C]-Citrate Uptake, %",human NaCT,92%
same,IC50,human NaCT; read-out: IC50 for inhibition of human NaCT-mediated [^14C]-citrate uptake,12.6 ± 5 mM
same,% Control of cDNA-specific [^3H]succinate uptake,drIndy,6%
same,cDNA-specific [^3H] succinate uptake,drIndy; pH 7.5,4.8 ± 0.3 fmol/106 cells per min
same,[^14C]Citrate uptake (cDNA-specific),rat NaCT,17.7 ± 1.4 Pmol/10^6 cells/min
same,"[^14C]Citrate uptake, %",rat NaCT,16%
same,[^3H]-Succinate transport (NaCT-specific),mouse NaCT,0.007 ± 0.002 pmol/10^6 cells/min
same,"[^3H]-Succinate transport, %",mouse NaCT,5%
same,[^14C]-Citrate transport (NaCT-specific),mouse NaCT,1.6 ± 0.4 pmol/10^6 cells/min
same,"[^14C]-Citrate transport, %",mouse NaCT,4%
[Cl-].[K+] [KCl],"Citrate Uptake, cDNA-specific, %",human NaCT,0%
same,"Citrate Uptake, cDNA",human NaCT,1.1 ± 0.1 pmol/10^6 cells/min
same,"Citrate Uptake, cDNA-specific",human NaCT,−0.1 ± 0.1^ pmol/10^6 cells/min
same,"Citrate uptake, drIndy",drIndy,33.8 ± 2.7 pmol/10^6 cells per min
same,Fold Increase of citrate uptake (drIndy vs vector),drIndy,19.9 fold
same,"Succinate uptake, drIndy",drIndy; pH 7.5,111.0 ± 8.5 fmol/10^6 cells per min
same,"Citrate Uptake, cDNA-specific, %",rat NaCT,0%
same,"Citrate Uptake, cDNA",rat NaCT,0.6 ± 0.1 pmol/10^6 cells/min
same,"Citrate Uptake, cDNA-specific",rat NaCT,0.1 ± 0.1 pmol/10^6 cells/min
[Cl-].[Li+] [LiCl],"Citrate Uptake, cDNA","human NaCT; [14C]-citrate 20 μM, human NaCT cDNA-transfected HRPE, indicated salt",2.0 ± 0.1 pmol/10^6 cells/min
same,"Citrate Uptake, cDNA-specific","human NaCT; [14C]-citrate 20 μM, indicated salt",0.7 ± 0.1 pmol/10^6 cells/min
same,"Citrate Uptake, cDNA-specific, %",human NaCT; relative to NaCl,1%
same,"Citrate uptake, drIndy",drIndy; [3],52.1 ± 2.2 pmol/10^6 cells per min
same,Fold Increase of citrate uptake (drIndy vs vector),"drIndy; citrate 35 μM, indicated salt",27.4 fold
same,"Citrate Uptake, cDNA-specific",rat NaCT; [4],1.1 ± 0.1 pmol/10^6 cells/min
same,"Citrate Uptake, cDNA",rat NaCT; [5],1.6 ± 0.1 pmol/10^6 cells/min
same,"Citrate Uptake, cDNA-specific, %",rat NaCT; [6],3%
"O=C(O)CC(O)C(=O)O (centres unmarked) [Malate, malate]",Competition with [^14C]citrate for ceNaCT-mediated uptake,"ceNaCT; competitor 2.5 mM, [14C]citrate 15 μM",inhibited markedly
same,IC50,human NaCT,3.12 ± 1.34 mM
same,[^14C]-Citrate Uptake (cDNA-specific),"human NaCT; [14C]-citrate 20 μM, unlabeled compound 2.5 mM",29.5 ± 1.9 pmol/10^6 cells/min
same,"[^14C]-Citrate Uptake, %","human NaCT; [14C]-citrate 20 μM, unlabeled compound 2.5 mM, none = 100",62%
same,% Control of cDNA-specific [^3H]succinate uptake,drIndy; [1],8%
same,cDNA-specific [^3H] succinate uptake,drIndy; [2],6.8 ± 2.7 fmol/106 cells per min
same,[^14C]Citrate uptake (cDNA-specific),"rat NaCT; [14C]citrate 14 μM, unlabeled compound 2.5 mM",7.8 ± 0.1 Pmol/10^6 cells/min
same,"[^14C]Citrate uptake, %","rat NaCT; [14C]citrate 14 μM, unlabeled compound 2.5 mM, none = 100",7%
same,[^3H]-Succinate transport (NaCT-specific),"mouse NaCT; [3H]-succinate 0.1 μM, substrate analog 2 mM",0.004 ± 0.001 pmol/10^6 cells/min
same,"[^3H]-Succinate transport, %","mouse NaCT; [3H]-succinate 0.1 μM, substrate analog 2 mM, control = 100",3%
same,[^14C]-Citrate transport (NaCT-specific),"mouse NaCT; [14C]-citrate 10 μM, substrate analog 2 mM",0.2 ± 0.1 pmol/10^6 cells/min
same,"[^14C]-Citrate transport, %","mouse NaCT; [14C]-citrate 10 μM, substrate analog 2 mM, control = 100",1%
"O=C(O)CC(=O)O [Malonate, malonate]",Competition with [^14C]citrate for ceNaCT-mediated uptake,ceNaCT,failed to inhibit the uptake of citrate
same,[^14C]-Citrate Uptake (cDNA-specific),human NaCT,57.3 ± 3.2 pmol/10^6 cells/min
same,"[^14C]-Citrate Uptake, %",human NaCT,120%
same,% Control of cDNA-specific [^3H]succinate uptake,drIndy,71%
same,cDNA-specific [^3H] succinate uptake,drIndy; pH 7.5,98.8 ± 7.1 fmol/106 cells per min
OC[C@@H](O)[C@@H](O)[C@H](O)[C@H](O)CO [Mannitol],"Citrate uptake, drIndy",drIndy; [3],26.3 ± 0.3 pmol/10^6 cells per min
same,Fold Increase of citrate uptake (drIndy vs vector),"drIndy; citrate 35 μM, indicated salt",15.5 fold
same,"Citrate Uptake, cDNA-specific",rat NaCT; [4],0.1 ± 0.1 pmol/10^6 cells/min
same,"Citrate Uptake, cDNA",rat NaCT; [5],0.7 ± 0.1 pmol/10^6 cells/min
same,"Citrate Uptake, cDNA-specific, %",rat NaCT; [6],0%
